Like-named read-outs stand apart in the source and are kept apart here.
How the values were obtained:
Type in all cases: cell-based, human
[1] = tested on: U87MG cells; assay: U87MG cell proliferation, MTS assay; details: Homo sapiens, U-87 MG, 72 h, MTS assay
Procedure: (§1) The U87MG cell line was obtained from the National Institute for Cancer Research of Genoa (Italy) and cultured in DMEM 10% FBS and 2 mM glutamine. To isolate GSCs, approximately 2.0×10^6 cells were suspended in 1 mL of a defined serum-free Neural Stem Cell (NSC) medium (Daniele, S., et al., Modulation of A1 and A2B adenosine receptor activity: a new strategy to sensitise glioblastoma stem cells to chemotherapy. Cell death & disease, 2014. 5(11): p. e1539). After 3-4 days of culture, the neurospheres were collected, suspended in NSC medium, dissociated into single cells, and plated for the assays. For the long-term treatment of cells, NSC or complete medium containing drugs was replaced every two to three days.
(§2) The human U87MG cells or GSCs were seeded at a density of 3×10^3 cells/well. After 24 h, the cells were treated from one to seven days with fresh growth medium containing different concentrations of SA16, SA23 or IB35. Following the treatment period, cell proliferation was determined using the MTS assay according to manufacturer's instruction. The absorbance of formazan at […] was measured in a colorimetric assay with an automated plate reader (Victor Wallac 2, Perkin Elmer). The results were calculated by subtracting the mean background from the values obtained from each evaluation and were expressed as the percentage of the control (untreated cells). Sigmoid dose-response curve was generated, from which the IC50 values were derived.
As representative GBM cell line, the above U87MG cells were used; this human cell line resulted an appropriate model to study the effects of PDK1 inhibition, because it is deficient for the tumour suppressor phosphatase and tensin homologue (PTEN), a negative regulator of the PI3K/AKT pathway (Wang, S. I., et al., Somatic mutations of PTEN in glioblastoma multiforme. Cancer research, 1997. 57(19): p. 4183-4186). To examine the effects of SA16, SA23 and IB35 on GBM cell growth/survival, U87MG cells were incubated with different concentrations of the new compounds (1 nM-10 μM) for 24 and 72 h. Specifically, U87MG cells were treated in complete medium with different concentrations of SA16, SA23 or IB35 (1 nM-10 μM) for 24 h (A) or 72 h (B). At the end of treatment, cell proliferation was measured using the MTS assay. The data are expressed as a percentage with respect to that of untreated cells (control), which was set to 100%, and are the mean values±SEM of three independent experiments, each performed in duplicate. The significance of the differences reported in FIGS. 1 and 2 was determined with a one-way ANOVA with Bonferroni post-test (* p<0.05, **p<0.01, *** p<0.001 vs. control cells).

[2] = tested on: GSCs isolated from U87MG cells; assay: GSC proliferation, MTS assay; details: Homo sapiens, U-87 MG, 168 h; seven days of treatment, MTS assay
Procedure: as §1, §2
The inhibition of PDK1 has been reported as potentially effective therapeutic approach to reduce self-renewal and propagation of GSCs (Signore, M., et al., Combined PDK1 and CHK1 inhibition is required to kill glioblastoma stem-like cells in vitro and in vivo. Cell death & disease, 2014. 5(5): p. e1223). On this basis, the effects of SA16, SA23 and IB35 on GSCs, isolated from U87MG cells as previously reported, were evaluated (Daniele, S., et al., Modulation of A1 and A28 adenosine receptor activity: a new strategy to sensitise glioblastoma stem cells to chemotherapy. Cell death & disease, 2014. 5(11): p. e1539). U87MG-derived GSCs were incubated with the indicated concentrations of IB35, SA23 or SA16 for four days (FIG. 8) or seven days (FIG. 9). At the end of the treatment periods, cell proliferation was measured using the MTS assay. The data were expressed as a percentage with respect to that of untreated cells (control), which was set to 100%, and are the mean values±SEM of three independent experiments, each performed in duplicate. IC50 values after seven days of treatment were calculated from sigmoid dose-response curve (FIG. 9). The significance of the differences was determined with a one-way ANOVA with Bonferroni post-test (** p<0.01, *** p<0.001 vs. control).

[3] = tested on: U87MG cells; assay: Annexin V and 7-AAD staining in U87MG cells (apoptosis); details: 10 μM, 72 h
Procedure: Dual staining with Annexin V coniugated to fluorescein-isothiocyanate (FITC) and 7-amino-actinomysin (7-AAD) was performed using the commercially available kit (Muse Annexin V and Dead Cell Kit; Merck KGaA, Darmstadt, Germany). U87MG cells or GSCs were treated with DMSO (control), SA16, SA23 or IB35 for 72 h or seven days, respectively. At the end of the treatment periods, the percentages of living, apoptotic and dead cells were acquired and analysed by Muse™ Cell Analyzer as previously described (Daniele, S., et al., Combined inhibition of AKT/mTOR and MDM2 enhances Glioblastoma Multiforme cell apoptosis and differentiation of cancer stem cells. Sci. Rep., 2015. 5.).
It was then investigated whether the reduction in cell proliferation elicited by the PDK1 inhibitors could be associated with apoptosis. U87MG cells were treated for 72 h with DMSO (control), or 10 μM SA16, SA23 or IB35. At the end of the treatment period, the cells were collected, and the level of phosphatidylserine externalisation was evaluated using the Annexin V-staining protocol, as described above (FIG. 3). In FIG. 4 the data are expressed as the percentage of apoptotic cells (the data for the early-stage apoptotic cells shown in white, and the data for the late-stage apoptotic/necrotic cells shown in grey) versus the total number of cells. The data shown represented the mean±SEM of three different experiments. The significance of the differences was determined with a one-way ANOVA with Bonferroni post-test (*** p<0.001 vs. control).

[4] = tested on: AKT phosphorylation at Thr308 in U87MG cells; assay: PDK1 activity in U87MG cells, (T308)AKT phosphorylation ELISA
Procedure: (§3) U87MG cells were cultured in 96-well microplates (5.000 cells/well), and treated for different times with 10 μM SA16, SA23 or IB35. At the end of the treatment period, the GSCs were centrifuged at 500×g for 3 minutes; cells were washed twice using fresh saline, and rapidly fixed with 4% (for adherent U87MG cells) or 8% (for suspension GSCs) formaldehyde to preserve activation of specific protein modification. The activity of PDK1 was assessed measuring the levels of phosphorylated AKT on Thr308, using a specific primary antibodies. The subsequent incubation with a secondary HRP-conjugated antibody and the developing solution allowed the colorimetric quantification of the levels of phosphorylated protein. The relative number of cells in each well was then determined using the Crystal-Violet assay. The results were calculated by subtracting the mean background value from the values obtained under each test condition: values were normalised to the number of cells in each well and were expressed as the percentages of the control (untreated cells) values.
280(4): p. 1107-1115). […] At the end of the treatment periods, the levels of (T308)AKT phosphorylation was evaluated using an ELISA kit, as described above. The data reported in FIG. 5 were expressed as the percentage of phosphorylated (T308)AKT relative to those of untreated cells (control), which were set at 100%, and were the mean values±SEM of three independent experiments performed in triplicate.

[5] = tested on: AKT phosphorylation at Thr308 in GSCs; assay: PDK1 activity in GSCs, (T308)AKT phosphorylation ELISA
Procedure: as §3
The effects of the new compounds on PDK1 activity were investigated by ELISA assays also in GSCs. U87MG-derived CSCs were treated for the indicated times (0-120 min) with NSC medium containing DMSO (control), or 10 μM IIB35, SA23 or SA16. At the end of the treatment periods, the levels of AKT phosphorylation on Thr308 were evaluated using an ELISA assay, as above described. The data were expressed as the percentage of phosphorylated AKT relative to those of untreated cells (control), which were set at 100%, and were the mean values±SEM of three independent experiments performed in triplicate. The data are represented in FIG. 12. The significance of differences was performed using one-way ANOVA with Bonferroni post-test (* p<0.05, ** p<0.01, *** p<0.001 vs. control).

O=C1Nc2ccc(NC(=O)[C@H](NC(=O)c3cccn(Cc4ccc(F)c(F)c4)c3=O)c3ccccc3)cc2/C1=C/c1cnc[nH]1 [SA16, (Z)—(R)—N-(2-((3-((1H-imidazol-5-yl)methylene)-2-oxoindolin-5-yl)amino)-2-oxo-1-phenylethyl)-1-(3,4-difluorobenzyl)-2-oxo-1,2-dihydropyridine-3-carboxamide]
IC50 ([1]; read-out: IC50 U87MG): 2.05 ± 0.19 µM
IC50 ([1]; read-out: IC50 U87MG cell proliferation): 2.05 ± 0.19 µM
IC50 [2]: 5.47 ± 0.1 nM
phosphatidylserine externalization (early and late apoptosis/death) [3]: significant phosphatidylserine externalization
inhibition at 10 µM ([4]; Homo sapiens, U-87 MG, U87MG cells, read-out: peak of inhibition (percentage of PDK1 inhibition)): 33.3 ± 4.5%
inhibition of AKT phosphorylation at Thr308 ([4]; U87MG, 10 μM, 0-120 min): biphasic kinetic
inhibition of AKT phosphorylation at Thr308 ([5]; 10 μM, 0-120 min): biphasic kinetic
inhibition at 10 µM ([5]; Homo sapiens, read-out: peak of inhibition (percentage of PDK1 inhibition)): 74.8 ± 3%
